# Test results from the kinase profiling compilation of Christmann-Franck et al. (2016).
# Columns and labels:
# Assay in all cases: radiometric filter-binding kinase assay
# RPS6KA3 KD1 KD2 (human) = RPS6KA3 KD1 KD2 (human) (UniProt P51812)
# MAPK12 (human) = MAPK12 (human) (UniProt P53778)
# MYLK (human) = MYLK (human) (UniProt Q15746)
# CSNK1D (human) = CSNK1D (human) (UniProt P48730)
# CDK2 CCNA2 (human) = CDK2 CCNA2 (human) (UniProt P20248+P24941)
# MELK (human) = MELK (human) (UniProt Q14680)
# INSR (human) = INSR (human) (UniProt P06213)
# TBK1 (human) = TBK1 (human) (UniProt Q9UHD2)
# [1] = system: SGK1 (human), O00141 [S422D]
# FLT1 (human) = FLT1 (human) (UniProt P17948)
# PIM3 (human) = PIM3 (human) (UniProt Q86V86)
# [2] = system: RPS6KB1 (human), P23443 [T412E]
# BRSK2 (human) = BRSK2 (human) (UniProt Q8IWQ3)
# CSK (human) = CSK (human) (UniProt P41240)
# FGFR1 (human) = FGFR1 (human) (UniProt P11362)
# MAPK8 (human) = MAPK8 (human) (UniProt P45983)
# PLK1 (human) = PLK1 (human) (UniProt P53350)
# PIM1 (human) = PIM1 (human) (UniProt P11309)
# SYK (human) = SYK (human) (UniProt P43405)
# INSRR (human) = INSRR (human) (UniProt P14616)
# MYLK (human), sequence (Q15746 whole entry, looked up): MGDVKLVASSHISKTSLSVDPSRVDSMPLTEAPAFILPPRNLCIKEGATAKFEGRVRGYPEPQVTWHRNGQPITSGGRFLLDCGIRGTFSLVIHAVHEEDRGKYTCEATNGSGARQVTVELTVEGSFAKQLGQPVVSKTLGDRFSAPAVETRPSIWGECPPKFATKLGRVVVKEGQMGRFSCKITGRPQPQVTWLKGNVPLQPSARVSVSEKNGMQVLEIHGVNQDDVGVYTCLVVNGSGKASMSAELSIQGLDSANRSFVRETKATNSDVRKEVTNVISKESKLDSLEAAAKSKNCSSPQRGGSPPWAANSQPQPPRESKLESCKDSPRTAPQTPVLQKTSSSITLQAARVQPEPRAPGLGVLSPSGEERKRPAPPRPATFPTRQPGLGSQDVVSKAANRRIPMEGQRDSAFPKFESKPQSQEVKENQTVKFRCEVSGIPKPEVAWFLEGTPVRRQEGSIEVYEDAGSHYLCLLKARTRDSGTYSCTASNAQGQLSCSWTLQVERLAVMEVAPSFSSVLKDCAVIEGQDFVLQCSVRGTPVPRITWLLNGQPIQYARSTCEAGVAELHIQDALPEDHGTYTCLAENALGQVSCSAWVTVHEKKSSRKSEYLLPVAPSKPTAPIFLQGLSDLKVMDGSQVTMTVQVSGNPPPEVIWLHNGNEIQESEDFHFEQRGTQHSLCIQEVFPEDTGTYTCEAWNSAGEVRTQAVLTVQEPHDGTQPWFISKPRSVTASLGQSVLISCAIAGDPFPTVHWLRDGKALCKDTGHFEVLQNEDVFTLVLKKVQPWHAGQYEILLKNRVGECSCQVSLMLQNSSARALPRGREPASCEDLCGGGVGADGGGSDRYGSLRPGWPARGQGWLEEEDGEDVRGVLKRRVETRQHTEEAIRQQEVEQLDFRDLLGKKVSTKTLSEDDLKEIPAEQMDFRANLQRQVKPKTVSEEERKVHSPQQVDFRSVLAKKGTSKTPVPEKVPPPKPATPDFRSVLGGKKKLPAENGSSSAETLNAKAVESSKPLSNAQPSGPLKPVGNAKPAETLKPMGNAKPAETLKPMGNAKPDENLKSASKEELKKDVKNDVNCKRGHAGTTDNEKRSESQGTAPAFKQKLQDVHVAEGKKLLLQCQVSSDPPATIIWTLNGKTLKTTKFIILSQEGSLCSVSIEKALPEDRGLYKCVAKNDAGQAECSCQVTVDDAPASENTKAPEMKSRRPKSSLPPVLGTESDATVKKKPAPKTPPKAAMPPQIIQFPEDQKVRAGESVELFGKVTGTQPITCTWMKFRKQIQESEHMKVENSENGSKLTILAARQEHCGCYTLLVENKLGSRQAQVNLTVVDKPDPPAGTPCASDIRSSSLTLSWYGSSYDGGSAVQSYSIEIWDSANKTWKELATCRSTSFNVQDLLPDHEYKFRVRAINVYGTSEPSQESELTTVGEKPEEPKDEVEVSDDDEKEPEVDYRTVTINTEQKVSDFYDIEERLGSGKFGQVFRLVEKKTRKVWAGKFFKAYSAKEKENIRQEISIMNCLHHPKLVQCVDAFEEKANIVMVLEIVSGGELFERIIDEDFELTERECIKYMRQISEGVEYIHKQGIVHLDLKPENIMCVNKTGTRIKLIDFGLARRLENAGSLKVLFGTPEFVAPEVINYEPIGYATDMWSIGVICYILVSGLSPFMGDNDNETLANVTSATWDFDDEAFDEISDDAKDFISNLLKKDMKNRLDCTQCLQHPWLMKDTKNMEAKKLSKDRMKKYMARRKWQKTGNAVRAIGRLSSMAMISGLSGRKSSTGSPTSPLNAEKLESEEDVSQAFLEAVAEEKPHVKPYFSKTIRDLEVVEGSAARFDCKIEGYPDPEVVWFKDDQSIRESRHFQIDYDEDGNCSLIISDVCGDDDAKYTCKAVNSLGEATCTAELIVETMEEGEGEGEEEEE
# FLT1 (human), sequence (P17948 whole entry, looked up): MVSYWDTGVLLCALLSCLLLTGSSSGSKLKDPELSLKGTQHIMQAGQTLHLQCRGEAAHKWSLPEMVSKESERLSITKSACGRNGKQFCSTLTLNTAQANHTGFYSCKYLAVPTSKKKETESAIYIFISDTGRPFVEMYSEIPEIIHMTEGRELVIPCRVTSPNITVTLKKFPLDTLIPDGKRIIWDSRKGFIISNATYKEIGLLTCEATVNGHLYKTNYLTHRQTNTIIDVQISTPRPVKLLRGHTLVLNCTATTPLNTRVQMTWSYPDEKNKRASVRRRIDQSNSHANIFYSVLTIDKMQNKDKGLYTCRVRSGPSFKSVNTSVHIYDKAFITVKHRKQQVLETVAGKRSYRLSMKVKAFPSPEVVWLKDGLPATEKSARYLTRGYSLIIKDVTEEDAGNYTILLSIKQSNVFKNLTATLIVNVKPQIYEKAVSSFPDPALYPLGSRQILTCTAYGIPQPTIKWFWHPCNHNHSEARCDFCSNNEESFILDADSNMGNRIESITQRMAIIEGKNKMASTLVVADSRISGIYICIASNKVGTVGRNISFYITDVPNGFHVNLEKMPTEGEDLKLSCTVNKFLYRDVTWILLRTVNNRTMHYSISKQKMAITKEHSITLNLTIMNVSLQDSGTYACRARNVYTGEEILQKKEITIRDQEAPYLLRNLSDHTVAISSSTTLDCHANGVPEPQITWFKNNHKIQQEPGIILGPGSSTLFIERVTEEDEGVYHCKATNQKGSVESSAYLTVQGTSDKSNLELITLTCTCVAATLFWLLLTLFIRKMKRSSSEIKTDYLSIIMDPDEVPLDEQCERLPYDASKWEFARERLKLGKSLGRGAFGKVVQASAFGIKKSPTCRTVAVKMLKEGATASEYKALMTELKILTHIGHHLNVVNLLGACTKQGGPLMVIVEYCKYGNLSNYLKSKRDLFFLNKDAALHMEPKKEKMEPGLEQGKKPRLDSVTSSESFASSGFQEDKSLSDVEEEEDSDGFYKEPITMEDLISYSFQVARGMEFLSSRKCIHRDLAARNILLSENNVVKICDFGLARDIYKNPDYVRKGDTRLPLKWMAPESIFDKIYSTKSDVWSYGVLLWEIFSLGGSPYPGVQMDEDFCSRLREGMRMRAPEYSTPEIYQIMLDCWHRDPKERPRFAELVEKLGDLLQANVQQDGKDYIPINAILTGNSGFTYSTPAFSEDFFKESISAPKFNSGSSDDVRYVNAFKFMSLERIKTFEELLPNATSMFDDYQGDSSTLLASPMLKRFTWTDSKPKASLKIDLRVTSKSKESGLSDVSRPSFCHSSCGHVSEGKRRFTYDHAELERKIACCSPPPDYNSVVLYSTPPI
# PLK1 (human), sequence (P53350 whole entry, looked up): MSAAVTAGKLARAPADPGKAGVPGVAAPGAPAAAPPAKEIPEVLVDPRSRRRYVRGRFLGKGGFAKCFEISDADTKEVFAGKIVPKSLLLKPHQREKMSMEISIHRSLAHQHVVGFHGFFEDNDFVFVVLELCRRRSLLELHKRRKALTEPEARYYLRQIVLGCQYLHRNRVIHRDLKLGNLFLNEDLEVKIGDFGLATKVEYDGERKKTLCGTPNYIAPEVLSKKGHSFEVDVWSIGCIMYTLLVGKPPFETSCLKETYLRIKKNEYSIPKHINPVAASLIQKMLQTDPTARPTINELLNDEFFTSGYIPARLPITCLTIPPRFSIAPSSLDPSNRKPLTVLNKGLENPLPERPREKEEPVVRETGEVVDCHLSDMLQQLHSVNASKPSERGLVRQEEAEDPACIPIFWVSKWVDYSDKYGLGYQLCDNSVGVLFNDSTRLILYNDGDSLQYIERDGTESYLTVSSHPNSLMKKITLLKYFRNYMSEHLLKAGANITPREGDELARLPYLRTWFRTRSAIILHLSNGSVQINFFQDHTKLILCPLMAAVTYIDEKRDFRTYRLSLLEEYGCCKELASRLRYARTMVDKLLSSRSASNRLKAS
# BRSK2 (human), sequence (Q8IWQ3 whole entry, looked up): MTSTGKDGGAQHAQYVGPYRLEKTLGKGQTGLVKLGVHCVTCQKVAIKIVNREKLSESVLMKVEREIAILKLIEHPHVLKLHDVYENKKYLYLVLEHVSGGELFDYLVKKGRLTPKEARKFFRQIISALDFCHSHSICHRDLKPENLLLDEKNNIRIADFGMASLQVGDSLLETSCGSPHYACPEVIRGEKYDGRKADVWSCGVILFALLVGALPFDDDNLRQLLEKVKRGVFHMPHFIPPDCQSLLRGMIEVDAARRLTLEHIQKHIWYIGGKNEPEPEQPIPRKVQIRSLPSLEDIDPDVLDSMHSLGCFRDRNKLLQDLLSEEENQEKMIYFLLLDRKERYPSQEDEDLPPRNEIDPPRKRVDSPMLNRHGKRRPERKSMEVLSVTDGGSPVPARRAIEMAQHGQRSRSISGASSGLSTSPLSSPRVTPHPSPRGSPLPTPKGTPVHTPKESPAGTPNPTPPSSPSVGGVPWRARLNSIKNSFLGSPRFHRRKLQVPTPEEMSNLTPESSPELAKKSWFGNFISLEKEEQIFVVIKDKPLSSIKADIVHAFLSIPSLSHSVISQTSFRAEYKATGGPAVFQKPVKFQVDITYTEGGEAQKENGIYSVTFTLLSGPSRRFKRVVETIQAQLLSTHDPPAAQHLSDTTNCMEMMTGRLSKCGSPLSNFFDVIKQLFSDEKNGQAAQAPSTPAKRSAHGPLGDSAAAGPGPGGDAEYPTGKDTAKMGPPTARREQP
# PIM1 (human), sequence (P11309 whole entry, looked up): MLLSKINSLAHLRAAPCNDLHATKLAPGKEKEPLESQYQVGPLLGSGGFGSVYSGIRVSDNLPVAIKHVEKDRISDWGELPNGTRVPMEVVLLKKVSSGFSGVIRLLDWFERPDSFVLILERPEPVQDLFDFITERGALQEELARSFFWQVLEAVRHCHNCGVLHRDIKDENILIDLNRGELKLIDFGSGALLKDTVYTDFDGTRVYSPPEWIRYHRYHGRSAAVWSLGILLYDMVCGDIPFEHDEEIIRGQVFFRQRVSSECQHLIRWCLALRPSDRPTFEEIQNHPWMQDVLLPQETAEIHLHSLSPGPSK
smiles,measurement,setting,value
C[C@H]1CCCC(=O)CCC/C=C/c2cc(O)cc(O)c2C(=O)O1,residual activity,RPS6KA3 KD1 KD2 (human); compound 1.0 µM,80%
same,residual activity,RPS6KA3 KD1 KD2 (human); compound 10.0 µM,52%
same,residual activity,MAPK12 (human); compound 1.0 µM,97%
same,residual activity,MAPK12 (human); compound 10.0 µM,93%
same,residual activity,MYLK (human); compound 1.0 µM,104%
same,residual activity,MYLK (human); compound 10.0 µM,59%
same,residual activity,CSNK1D (human); compound 1.0 µM,99%
same,residual activity,CSNK1D (human); compound 10.0 µM,83%
same,residual activity,CDK2 CCNA2 (human); compound 1.0 µM,82%
same,residual activity,CDK2 CCNA2 (human); compound 10.0 µM,32%
same,residual activity,MELK (human); compound 1.0 µM,97%
same,residual activity,MELK (human); compound 10.0 µM,66%
same,residual activity,INSR (human); compound 1.0 µM,107%
same,residual activity,INSR (human); compound 10.0 µM,102%
same,residual activity,TBK1 (human); compound 1.0 µM,82%
same,residual activity,TBK1 (human); compound 10.0 µM,80%
same,residual activity,[1]; compound 1.0 µM,93%
same,residual activity,[1]; compound 10.0 µM,93%
same,residual activity,FLT1 (human); compound 1.0 µM,95%
same,residual activity,FLT1 (human); compound 10.0 µM,69%
same,residual activity,PIM3 (human); compound 1.0 µM,49%
same,residual activity,PIM3 (human); compound 10.0 µM,18%
same,residual activity,[2]; compound 1.0 µM,106%
same,residual activity,[2]; compound 10.0 µM,61%
same,residual activity,BRSK2 (human); compound 1.0 µM,54%
same,residual activity,BRSK2 (human); compound 10.0 µM,17%
same,residual activity,CSK (human); compound 1.0 µM,80%
same,residual activity,CSK (human); compound 10.0 µM,64%
same,residual activity,FGFR1 (human); compound 1.0 µM,90%
same,residual activity,FGFR1 (human); compound 10.0 µM,51%
same,residual activity,MAPK8 (human); compound 1.0 µM,88%
same,residual activity,MAPK8 (human); compound 10.0 µM,80%
same,residual activity,PLK1 (human); compound 1.0 µM,76%
same,residual activity,PLK1 (human); compound 10.0 µM,63%
same,residual activity,PIM1 (human); compound 1.0 µM,51%
same,residual activity,PIM1 (human); compound 10.0 µM,11%
same,residual activity,SYK (human); compound 1.0 µM,93%
same,residual activity,SYK (human); compound 10.0 µM,84%
same,residual activity,INSRR (human); compound 1.0 µM,75%
same,residual activity,INSRR (human); compound 10.0 µM,41%
NC(=O)Nc1ccc2c(c1)/C(=C/c1cc(-c3cccnc3)c[nH]1)C(=O)N2,residual activity,RPS6KA3 KD1 KD2 (human); compound 0.1 µM,38%
same,residual activity,RPS6KA3 KD1 KD2 (human); compound 1.0 µM,32%
same,residual activity,RPS6KA3 KD1 KD2 (human); compound 10.0 µM,22%
same,residual activity,MAPK12 (human); compound 0.1 µM,93%
same,residual activity,MAPK12 (human); compound 1.0 µM,86%
same,residual activity,MYLK (human); compound 0.1 µM,54%
same,residual activity,MYLK (human); compound 1.0 µM,11%
same,residual activity,MYLK (human); compound 10.0 µM,1%
same,residual activity,CSNK1D (human); compound 0.1 µM,90%
same,residual activity,CSNK1D (human); compound 1.0 µM,59%
same,residual activity,CSNK1D (human); compound 10.0 µM,20%
same,residual activity,CDK2 CCNA2 (human); compound 0.1 µM,63%
same,residual activity,CDK2 CCNA2 (human); compound 1.0 µM,14%
same,residual activity,CDK2 CCNA2 (human); compound 10.0 µM,6%
same,residual activity,MELK (human); compound 0.1 µM,16%
same,residual activity,MELK (human); compound 1.0 µM,3%
same,residual activity,MELK (human); compound 10.0 µM,0%
same,residual activity,INSR (human); compound 0.1 µM,112%
same,residual activity,INSR (human); compound 1.0 µM,101%
same,residual activity,INSR (human); compound 10.0 µM,26%
same,residual activity,TBK1 (human); compound 0.1 µM,27%
same,residual activity,TBK1 (human); compound 1.0 µM,7%
same,residual activity,TBK1 (human); compound 10.0 µM,11%
same,residual activity,[1]; compound 0.1 µM,77%
same,residual activity,[1]; compound 1.0 µM,32%
same,residual activity,[1]; compound 10.0 µM,6%
same,residual activity,FLT1 (human); compound 0.1 µM,7%
same,residual activity,FLT1 (human); compound 1.0 µM,3%
same,residual activity,FLT1 (human); compound 10.0 µM,1%
same,residual activity,PIM3 (human); compound 0.1 µM,30%
same,residual activity,PIM3 (human); compound 1.0 µM,9%
same,residual activity,PIM3 (human); compound 10.0 µM,7%
same,residual activity,[2]; compound 0.1 µM,76%
same,residual activity,[2]; compound 1.0 µM,32%
same,residual activity,[2]; compound 10.0 µM,12%
same,residual activity,BRSK2 (human); compound 0.1 µM,13%
same,residual activity,BRSK2 (human); compound 1.0 µM,10%
same,residual activity,BRSK2 (human); compound 10.0 µM,18%
same,residual activity,CSK (human); compound 0.1 µM,98%
same,residual activity,CSK (human); compound 1.0 µM,69%
same,residual activity,CSK (human); compound 10.0 µM,42%
same,residual activity,FGFR1 (human); compound 0.1 µM,17%
same,residual activity,FGFR1 (human); compound 1.0 µM,2%
same,residual activity,FGFR1 (human); compound 10.0 µM,1%
same,residual activity,MAPK8 (human); compound 0.1 µM,124%
same,residual activity,MAPK8 (human); compound 1.0 µM,99%
same,residual activity,MAPK8 (human); compound 10.0 µM,48%
same,residual activity,PLK1 (human); compound 0.1 µM,86%
same,residual activity,PLK1 (human); compound 1.0 µM,42%
same,residual activity,PLK1 (human); compound 10.0 µM,18%
same,residual activity,PIM1 (human); compound 0.1 µM,43%
same,residual activity,PIM1 (human); compound 1.0 µM,9%
same,residual activity,PIM1 (human); compound 10.0 µM,2%
same,residual activity,SYK (human); compound 1.0 µM,40%
same,residual activity,SYK (human); compound 10.0 µM,7%
same,residual activity,INSRR (human); compound 0.1 µM,35%
same,residual activity,INSRR (human); compound 1.0 µM,16%
same,residual activity,INSRR (human); compound 10.0 µM,5%
